Source: ChEMBL document CHEMBL5608141, “Identification of compartment-specific drug sensitivities in CRC organoid-stroma co-cultures” (2024)

Key:
Assay type in all cases: functional, Homo sapiens
Set-up in all cases: dose or concentration left out as unconfirmed
Colon cancer organoid [1] = assay: Identification of compartment-specific drug sensitivities in O06 CRC organoid-stroma F06 CAF co-cultures. Organoid is transduced with Lucferase2-P2A-EGFP lentivirus, fibroblast with Renilla-dsRed lentivirus. Dual-Glo Luciferase assay is used to report viability data.
Colon cancer organoid [2] = assay: Identification of compartment-specific drug sensitivities in O14 CRC organoid-stroma F14 CAF co-cultures. Organoid is transduced with Lucferase2-P2A-EGFP lentivirus, fibroblast with Renilla-dsRed lentivirus. Dual-Glo Luciferase assay is used to report viability data.
Colon cancer organoid [3] = assay: Identification of compartment-specific drug sensitivities in O20 CRC organoid-stroma F20 CAF co-cultures. Organoid is transduced with Lucferase2-P2A-EGFP lentivirus, fibroblast with Renilla-dsRed lentivirus. Dual-Glo Luciferase assay is used to report viability data.
[4] = Transduced with Lucferase2-P2A-EGFP lentivirus
[5] = Transduced with Renilla-dsRed lentivirus

SMILES | Cell Viability (Colon cancer organoid [1]; [4]) [%] | Cell Viability (Colon cancer organoid [1]; [5]) [%] | Cell Viability (Colon cancer organoid [2]; [4]) [%] | Cell Viability (Colon cancer organoid [2]; [5]) [%] | Cell Viability (Colon cancer organoid [3]; [4]) [%] | Cell Viability (Colon cancer organoid [3]; [5]) [%]
CC(=O)Nc1ncc(CN2CCC[C@H](Cc3cc(C)nc(C)c3)C2)s1 [JNJ-65355394] | 116.935 | 172.928 | 108.182 | 61.6526 | 88.5022 | 103.797
CN1C(=O)c2sccc2N(C)c2nc(Nc3ccc(S(N)(=O)=O)cc3)ncc21 | 23.972 | 57.2364 | 48.6334 | 48.1427 | 35.7299 | 84.1947
Cc1cc(C)cc([C@H]2c3cc(C)ccc3NC(=O)CN2C(=O)c2ccc(Br)s2)c1 | 94.0417 | 115.465 | 153.941 | 101.442 | 134.675 | 98.7461
CCC(=O)N[C@@H]1CC[C@H](C(=O)N(C)c2ccc(-c3nc4ccccc4o3)cc2)C1 [BI 99990] | 102.864 | 119.997 | 98.8872 | 100.403 | 115.817 | 121.154
CC(C)Oc1ccc(-c2c[nH]cc2CN(C)CCO)cc1 | 112.392 | 114.959 | 129.064 | 102.719 | 114.429 | 121.653
O=C(Nc1cnc(Oc2ccc(F)cc2)nc1)N1CCc2ncccc2[C@@H]1c1ccc(F)cc1 [BAY-899] | 92.2798 | 100.101 | 105.834 | 99.8567 | 151.912 | 104.61
